Values of other authors in article PMC11010885, “Functional Analysis and Tissue-Specific Expression of Calcitonin and CGRP with RAMP-Modulated Receptors CTR and CLR in Chickens” (Animals : an Open Access Journal from MDPI, 2024).

Test system: RAMP1- and RAMP3-derived amylin receptors
Settings: ref [51],[53]; cited from earlier work
Experimental: In mammals, CTR functions as a receptor for three distinct hormones: CT, CGRP, and amylin (not explored in this study). The specific affinity spectrum is determined by its co-expression with RAMPs. Although CTR alone is a receptor for CT that is involved in bone homeostasis, CTRs in complex with RAMP1–3 are high-affinity receptors for amylin, a peptide involved in the regulation of food intake. […] The CTR + RAMP1 complex is a ...

For “human CT: human CT, cited from the literature”, the affinity is listed as “low affinity”.
